Results published in patent US20100267561A1, “HERBICIDAL PYRIDAZINONE DERIVATIVES” (priority 2007, published 2010).

Legend:
Type in all cases: in vivo
[1] = system: winter barley (HORVX, Hordeum vulgare); assay: Test G mixtures of Compound 26 with crop safeners, postemergence plant response; details: applied alone, 125 g a.i./ha
Method: (§1) This test evaluated the effect of mixtures of Compound 26 with commercial crop safeners cloquintocet-mexyl, mefenpyr-diethyl, and fenchlorazole-ethyl on three plant species. Seeds of winter wheat (TRZAW, Triticum aestivum), winter barley (HORVX, Hordeum vulgare), and wild oat (AVEFA, Avena fatua) (a weed) were planted into a silt loam soil. Plants from these seeds were treated postemergence using test chemicals formulated in a non-phytotoxic solvent mixture that included a surfactant. Plants ranged in height from 6 to 10 cm (2- to 3-leaf stage).
(§2) Plants were grown in a greenhouse using supplemental lighting to maintain a photoperiod of about 14 hours; daytime and nighttime temperatures were about 22-26° C. and 15-19° C., respectively. Balanced fertilizer was applied through the watering system. Treatments consisted of Compound 26 and the above mentioned safeners alone and in combination using a spray volume of 281 L/ha. Each treatment was replicated four times. Treated plants and controls were maintained in a greenhouse for 15 days, after which time all treated plants were compared to controls and visually evaluated. Plant response ratings were calculated as the means of the four replicates based on a scale of 0 to 100 where 0 is no effect and 100 is complete control and are summarized in Tables G1 to G3. Because the safeners alone caused no injury at the rates tested, the expected effect of a mixture of Compound 26 with a safener is the same as the observed effect of Compound 26 alone.
(§3) The highest application rate of each safener was tested alone to confirm the absence of herbicidal activity on the test species when appled postemergence at 125 g ai/ha. Therefore, an extrapolated result of zero for each safener alone at 16, 31, or 62 g ai/ha was used to calculate the mixture response of Compound 26 and these safener application rates.

[2] = system: wild oat (AVEFA, Avena fatua); assay: as above; details: applied alone, 125 g a.i./ha
Method: as §1, §2, §3

[3] = system: winter wheat (TRZAW, Triticum aestivum); assay: as above; details: applied alone, 125 g a.i./ha
Method: as §1, §2, §3

[4] = system: winter barley (HORVX, Hordeum vulgare); assay: Test F mixtures with safener cloquintocet-mexyl, pre-/postemergence plant response; details: for HORVX Obsd. (observed effect) plant response rating, scale 0 to 100: applied alone
From the text: (§4) This test evaluated the effect of mixtures of Compound 3, Compound 11, or Compound 12 with the commercial crop safener cloquintocet-mexyl on three plant species. Seeds of test plants consisting of winter wheat (TRZAW, Triticum aestivum), winter barley (HORVX, Hordeum vulgare), and wild oat (AVEFA, Avena fatua) (a weed) were planted into a blend of loam soil and sand and treated preemergence with a directed soil spray using test chemicals formulated in a non-phytotoxic solvent mixture that included a surfactant. At the same time, plants selected from these crop and weed species were treated with postemergence applications of the test chemicals formulated in the same manner. Plants ranged in height from 2 to 18 cm (1- to 4-leaf stage) for postemergence treatments.
(§5) Plants were grown in a greenhouse using supplemental lighting to maintain a photoperiod of about 16 hours; daytime and nighttime temperatures were about 24-30° C. and 19-21° C., respectively. Balanced fertilizer was applied through the watering system. Treatments consisted of Compound 3, Compound 11, or Compound 12 and the above mentioned safener alone and in combination using a spray volume of 457 L/ha. Each treatment was replicated three times. Treated plants and controls were maintained in a greenhouse for 14 to 21 days, after which time all treated plants were compared to controls and visually evaluated. Plant response ratings were calculated as the means of the three replicates and are summarized in Tables F1 to F6, and are based on a scale of 0 to 100 where 0 is no effect and 100 is complete control. Because cloquintocet-mexyl alone caused no injury at the rates tested, the expected effect of a mixture of Compound 3 with cloquintocet-mexyl is the same as the observed effect of Compound 3 applied alone.

[5] = system: wild oat (AVEFA, Avena fatua); assay: as above; details: for AVEFA Obsd. (observed effect) plant response rating, scale 0 to 100: applied alone
From the text: as §4, §5

[6] = system: winter wheat (TRZAW, Triticum aestivum); assay: as above; details: for TRZAW Obsd. (observed effect) plant response rating, scale 0 to 100: applied alone
From the text: as §4, §5

CCCCCC(C)OC(=O)COc1ccc(Cl)c2cccnc12 (stereo not drawn) [cloquintocet-mexyl, reference compound]
HORVX Obsd. (observed effect) plant response rating, scale 0 to 100 [1]: 0
AVEFA Obsd. (observed effect) plant response rating, scale 0 to 100 [2]: 0
TRZAW Obsd. (observed effect) plant response rating, scale 0 to 100 [3]: 0
HORVX Obsd. (observed effect) plant response rating, scale 0 to 100 ([4]; postemergence, 4 g a.i./ha): 0
HORVX Obsd. (observed effect) plant response rating, scale 0 to 100 ([4]; postemergence, 8 g a.i./ha): 0
HORVX Obsd. (observed effect) plant response rating, scale 0 to 100 ([4]; preemergence, 4 g a.i./ha): 0
HORVX Obsd. (observed effect) plant response rating, scale 0 to 100 ([4]; preemergence, 8 g a.i./ha): 0
plant response (injury), safener alone ([4]; winter barley, safener alone at the rates tested, pre- and postemergence, 14 to 21 days): no injury
AVEFA Obsd. (observed effect) plant response rating, scale 0 to 100 ([5]; postemergence, 4 g a.i./ha): 0
AVEFA Obsd. (observed effect) plant response rating, scale 0 to 100 ([5]; postemergence, 8 g a.i./ha): 0
AVEFA Obsd. (observed effect) plant response rating, scale 0 to 100 ([5]; preemergence, 4 g a.i./ha): 0
AVEFA Obsd. (observed effect) plant response rating, scale 0 to 100 ([5]; preemergence, 8 g a.i./ha): 0
plant response (injury), safener alone ([5]; wild oat, safener alone at the rates tested, pre- and postemergence, 14 to 21 days): no injury
TRZAW Obsd. (observed effect) plant response rating, scale 0 to 100 ([6]; postemergence, 4 g a.i./ha): 0
TRZAW Obsd. (observed effect) plant response rating, scale 0 to 100 ([6]; postemergence, 8 g a.i./ha): 0
TRZAW Obsd. (observed effect) plant response rating, scale 0 to 100 ([6]; preemergence, 4 g a.i./ha): 0
TRZAW Obsd. (observed effect) plant response rating, scale 0 to 100 ([6]; preemergence, 8 g a.i./ha): 0
plant response (injury), safener alone ([6]; winter wheat, safener alone at the rates tested, pre- and postemergence, 14 to 21 days): no injury
